Patent publication US4137241A, “Deoxy-(0-8)-epi-17-salinomycin (1)” (priority 1977, dated 1979)
Converted amounts (≈) assume the structure as drawn.

Assays:
[1] = tested on: DOCA Na rat; experiment: Antihypertensive activity in the DOCA Na rat, five-day oral dosing, systolic blood pressure; format: in vivo
Procedure: (§1) A test was conducted for antihypertensive activity in the DOCA Na rat. DOCA rats weighing 170 to 210 grams are used in the test. DOCA Na Hypertension is induced by unilateral nephrectomy followed by subcutaneous implantation of a 25 mg. desoxycorticosterone (DOCA) pellet. Animals are placed in individual cages receiving 0.9% sodium chloride solution to drink and rat chow diet ad libitum. Two weeks are allowed to elapse from the time of surgery for development of hypertension, i.e., systolic blood pressure of at least 150 mmHg.
(§2) Systolic blood pressure and heart rate are measured indirectly from the tail pressure pulse of unanesthetized rats, using a pneumatic pulse transducer. Control readings are taken prior to drug and post drug readings are taken at 1, 3, 6 and 24 hours.
(§3) The experimental results are represented as absolute values. Drug-related alterations in systolic blood pressure are expressed as percentage change by comparing control absolute values with post drug absolute values. Compounds are considered active when about a 15% or greater reduction in blood pressure is obtained. However, the reduction in blood pressure must show mathematical significance ([…]).
A derivative of the polyether ionophore, lasalocid, i.e., the bromo derivative of lasalocid, was tested in the above screen. The compound was orally administered for a five-day period by intubation and thereafter dosing was discontinued but blood pressure monitoring was continued. The following table illustrates the results obtained utilizing bromolasalocid as the test drug.

[2] = Oral (per os) toxicity (LD50); conditions: in vivo
[3] = tested on: Candida albicans; experiment: Antimicrobial spectrum, agar diffusion technique; format: cell-based
Description: (§4) M.I.C. Values in mcg/ml utilizing the
(§5) Test Organism agar diffusion technique

[4] = tested on: Bacillus subtilis; experiment: Antimicrobial spectrum, agar diffusion technique; format: cell-based
Description: as §4, §5

[5] = tested on: Sarcina lutea; experiment: Antimicrobial spectrum, agar diffusion technique; format: cell-based; conditions: Micrococcus luteus
Description: as §4, §5

[6] = tested on: Bacillus sp. E; experiment: Antimicrobial spectrum, agar diffusion technique; format: cell-based
Description: as §4, §5

[7] = tested on: Paecilomyces varioti; experiment: Antimicrobial spectrum, agar diffusion technique; format: cell-based
Description: as §4, §5

[8] = tested on: Staphylococcus aureus; experiment: Antimicrobial spectrum, agar diffusion technique; format: cell-based
Description: as §4, §5

[9] = tested on: Bacillus megaterium; experiment: Antimicrobial spectrum, agar diffusion technique; format: cell-based; conditions: Priestia megaterium
Description: as §4, §5

[10] = tested on: Actinomyces cellulosae; experiment: Antimicrobial spectrum, agar diffusion technique; format: cell-based; conditions: Streptomyces cellulosae
Description: as §4, §5

[11] = tested on: Mycobacterium phlei; experiment: Antimicrobial spectrum, agar diffusion technique; format: cell-based; conditions: Mycolicibacterium phlei
Description: as §4, §5

[12] = tested on: Bacillus sp. TA; experiment: Antimicrobial spectrum, agar diffusion technique; format: cell-based
Description: as §4, §5

[13] = tested on: DOCA-Na. rat; experiment: Subacute antihypertensive activity in the DOCA-Na rat versus bromolasalocid (AHR, onset, duration); format: in vivo
Procedure: as §1, §2
as §3, with “Compounds are considered active when about a 15% or greater reduction in blood pressure is obtained.” left out
Using bromolasalocid as a standard for comparison, a number of the novel episalinomycin of the present invention was tested for antihypertensive activity. The tests were conducted utilizing single oral dosages in the DOCA-Na. rat over a five-day period with dosing discontinued thereafter. Blood pressure monitoring was carried out for the five-day period and daily after cessation of dosing until blood pressure returned to predrug levels. […] The antihypertensive activity expressed as AHR (Subacute antihypertensive ratio) was calculated using bromolasalocid as the standard reference (Table III).

[14] = daily oral dose 1/100 of LD50 up to 10 mg/kg/day, five days

CC[C@@H](C(=O)[C@@H](C)[C@@H](O)[C@H](C)CCc1c(Br)cc(C)c(O)c1C(=O)O)[C@H]1O[C@](CC)([C@H]2CC[C@](O)(CC)[C@H](C)O2)C[C@@H]1C [Bromolasalocid]
Average Systolic Blood Pressure Per Group ([1]; 5 mg/kg per day oral for 5 days, Day 1 pm, pre-drug control (Day 1 am) 209): 193 mmHg
Average Systolic Blood Pressure Per Group ([1]; 5 mg/kg per day oral for 5 days, Day 2 am, pre-drug control 209): 206 mmHg
Average Systolic Blood Pressure Per Group ([1]; 5 mg/kg per day oral for 5 days, Day 2 pm, pre-drug control 209): 194 mmHg
Average Systolic Blood Pressure Per Group ([1]; 5 mg/kg per day oral for 5 days, Day 3 am, pre-drug control 209): 204 mmHg
Average Systolic Blood Pressure Per Group ([1]; 5 mg/kg per day oral for 5 days, Day 3 pm, pre-drug control 209): 191 mmHg
Average Systolic Blood Pressure Per Group ([1]; 5 mg/kg per day oral for 5 days, Day 4 am, pre-drug control 209): 206 mmHg
Average Systolic Blood Pressure Per Group ([1]; 5 mg/kg per day oral for 5 days, Day 4 pm, pre-drug control 209): 201 mmHg
Average Systolic Blood Pressure Per Group ([1]; 5 mg/kg per day oral for 5 days, Day 5 am, pre-drug control 209): 197 mmHg
Average Systolic Blood Pressure Per Group ([1]; 5 mg/kg per day oral for 5 days, Day 5 pm, pre-drug control 209): 196 mmHg
Average Systolic Blood Pressure Per Group ([1]; 10 mg/kg per day oral for 5 days, Day 1 pm, p < .05, pre-drug control (Day 1 am) 217): 192 mmHg
Average Systolic Blood Pressure Per Group ([1]; 10 mg/kg per day oral for 5 days, Day 2 am, p < .05, pre-drug control 217): 181 mmHg
Average Systolic Blood Pressure Per Group ([1]; 10 mg/kg per day oral for 5 days, Day 2 pm, p < .05, pre-drug control 217): 166 mmHg
Average Systolic Blood Pressure Per Group ([1]; 10 mg/kg per day oral for 5 days, Day 3 am, p < .05, pre-drug control 217): 171 mmHg
Average Systolic Blood Pressure Per Group ([1]; 10 mg/kg per day oral for 5 days, Day 3 pm, p < .05, pre-drug control 217): 163 mmHg
Average Systolic Blood Pressure Per Group ([1]; 10 mg/kg per day oral for 5 days, Day 4 am, p < .05, pre-drug control 217): 173 mmHg
Average Systolic Blood Pressure Per Group ([1]; 10 mg/kg per day oral for 5 days, Day 4 pm, p < .05, pre-drug control 217): 157 mmHg
Average Systolic Blood Pressure Per Group ([1]; 10 mg/kg per day oral for 5 days, Day 5 am, p < .05, pre-drug control 217): 176 mmHg
Average Systolic Blood Pressure Per Group ([1]; 10 mg/kg per day oral for 5 days, Day 5 pm, p < .05, pre-drug control 217): 166 mmHg
Period blood pressure remained below control after drug dosing ([1]; after dosing for the first five consecutive days): 10 days

CCC(C(=O)O)C1CCC(C)C(C(C)C(O)C(C)C(=O)C(CC)C2OC3(C=CCC4(CCC(C)(C5CCC(O)(CC)C(C)O5)O4)O3)C(C)CC2C)O1 (stereo not drawn) [Deoxy-(0-8)-epi-17-salinomycin, 6-[5-[2'-(5"-Ethyltetrahydro-5"-hydroxy-6"-methyl-(2"H)-pyran-2"-yl]-2' ,12' ,14'-trimethyl-1',10' ,15'-trioxadispiro[4.3.5.1]pentadec-7'-en-11'-yl]-5-ethyl-1,3-dimethyl-2-hydroxy-4-oxopentyl]-alpha-ethyl-tetrahydro-5-methyl-(2H)-pyran-2-acetic acid]
LD50 [2]: > 1000 mg/kg
MIC [3]: 2000 µg/mL (≈ 2720 µM)
MIC [4]: 6.25 µg/mL (≈ 8.5 µM)
MIC [5]: 25 µg/mL (≈ 34 µM)
MIC [6]: 6.25 µg/mL (≈ 8.5 µM)
MIC [7]: 15.7 µg/mL (≈ 21.4 µM)
MIC [8]: 25 µg/mL (≈ 34 µM)
MIC [9]: 6.25 µg/mL (≈ 8.5 µM)
MIC [10]: 250 µg/mL (≈ 340 µM)
MIC [11]: 500 µg/mL (≈ 680 µM)
MIC [12]: 6.25 µg/mL (≈ 8.5 µM)
antihypertensive activity (in words) ([13]; DOCA-Na rat, oral, five-day period): exhibited antihypertensive activity
Duration of Effect [13, 14]: 4 days
Onset to Max. Response [13, 14]: 3 days
